Test results from US11123337B2, “4-methylsulfonyl-substituted piperidine urea compounds” (MYOKARDIA, INC., priority 2015, dated 2021).
Counter-ions that a name gives are not always drawn.

Columns and labels:
bovine cardiac myosin = bovine cardiac myosin (Bos taurus, UniProt Q9BE39); experiment: Myosin activation assay (PK/LDH-coupled ATPase, bovine cardiac myofibrils); assay type: biochemical; conditions: AC20 = concentration at which total response is increased by twenty percent
In short: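 Skinned bovine cardiac myofibrils (1 mg/mL) in PIPES/MgCl2 buffer pH 6.8 at free Ca2+ giving ~50% (pCa ~6) or <5% (pCa 10) activation, with 50 μM ATP and 3.3% DMSO. ATPase rate from NADH absorbance at 340 nm (PK/LDH coupling) over 15 min at ambient temperature. AC20/AC50 from a four-parameter fit of DMSO-normalised rates.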

[1] = system: adult rat ventricular myocytes; experiment: Cardiomyocyte contractility assay (IonOptix edge detection, fractional shortening); assay type: cell-based; conditions: 1 Hz pacing; for Activity at 3.0 uM (fractional shortening activation over basal): 3.0 uM compound
Description: Contractility of adult rat ventricular myocytes is determined by edge detection with an IonOptix contractility system. Aliquots of myocytes in Tyrode buffer (137 mM NaCl, 3.7 mM KCl, 0.5 mM MgCl2, 1.5 mM CaCl2), 4 mM HEPES, 11 mM glucose) are placed in a perfusion chamber (Series 20 RC-27NE; Warner Instruments), allowed to adhere to the coverslip, and then perfused with 37° C. Tyrode buffer. Myocytes are filed stimulated at 1 Hz and 10V. Only myocytes with clear striations, quiescent prior to pacing, with a cell length of 120-180 microns, a basal fractional shortening equal to 3-8% of the cell length, and a contraction velocity greater than 100 microns per second are used for contractility experiments. To determine the response to compounds, myocytes are first perfused for 60 seconds with Tyrodes buffer followed by 5 minutes of compound and a 140 second washout with Tyrodes buffer. Data is continuously recorded using IonOptix software. Contractility data is analyzed using Ionwizard software (IonOptix). For each cell, 10-20 contractility transients were averaged and compared under basal (no compound) and compound-treated conditions. Compound activity is measured by effects on fractional shortening (FS), where fractional shortening is the ratio of the peak length of the cell at contraction divided by the basal cell length normalized to 100% for an untreated cell.

bovine cardiac myosin, sequence (Q9BE39 whole entry): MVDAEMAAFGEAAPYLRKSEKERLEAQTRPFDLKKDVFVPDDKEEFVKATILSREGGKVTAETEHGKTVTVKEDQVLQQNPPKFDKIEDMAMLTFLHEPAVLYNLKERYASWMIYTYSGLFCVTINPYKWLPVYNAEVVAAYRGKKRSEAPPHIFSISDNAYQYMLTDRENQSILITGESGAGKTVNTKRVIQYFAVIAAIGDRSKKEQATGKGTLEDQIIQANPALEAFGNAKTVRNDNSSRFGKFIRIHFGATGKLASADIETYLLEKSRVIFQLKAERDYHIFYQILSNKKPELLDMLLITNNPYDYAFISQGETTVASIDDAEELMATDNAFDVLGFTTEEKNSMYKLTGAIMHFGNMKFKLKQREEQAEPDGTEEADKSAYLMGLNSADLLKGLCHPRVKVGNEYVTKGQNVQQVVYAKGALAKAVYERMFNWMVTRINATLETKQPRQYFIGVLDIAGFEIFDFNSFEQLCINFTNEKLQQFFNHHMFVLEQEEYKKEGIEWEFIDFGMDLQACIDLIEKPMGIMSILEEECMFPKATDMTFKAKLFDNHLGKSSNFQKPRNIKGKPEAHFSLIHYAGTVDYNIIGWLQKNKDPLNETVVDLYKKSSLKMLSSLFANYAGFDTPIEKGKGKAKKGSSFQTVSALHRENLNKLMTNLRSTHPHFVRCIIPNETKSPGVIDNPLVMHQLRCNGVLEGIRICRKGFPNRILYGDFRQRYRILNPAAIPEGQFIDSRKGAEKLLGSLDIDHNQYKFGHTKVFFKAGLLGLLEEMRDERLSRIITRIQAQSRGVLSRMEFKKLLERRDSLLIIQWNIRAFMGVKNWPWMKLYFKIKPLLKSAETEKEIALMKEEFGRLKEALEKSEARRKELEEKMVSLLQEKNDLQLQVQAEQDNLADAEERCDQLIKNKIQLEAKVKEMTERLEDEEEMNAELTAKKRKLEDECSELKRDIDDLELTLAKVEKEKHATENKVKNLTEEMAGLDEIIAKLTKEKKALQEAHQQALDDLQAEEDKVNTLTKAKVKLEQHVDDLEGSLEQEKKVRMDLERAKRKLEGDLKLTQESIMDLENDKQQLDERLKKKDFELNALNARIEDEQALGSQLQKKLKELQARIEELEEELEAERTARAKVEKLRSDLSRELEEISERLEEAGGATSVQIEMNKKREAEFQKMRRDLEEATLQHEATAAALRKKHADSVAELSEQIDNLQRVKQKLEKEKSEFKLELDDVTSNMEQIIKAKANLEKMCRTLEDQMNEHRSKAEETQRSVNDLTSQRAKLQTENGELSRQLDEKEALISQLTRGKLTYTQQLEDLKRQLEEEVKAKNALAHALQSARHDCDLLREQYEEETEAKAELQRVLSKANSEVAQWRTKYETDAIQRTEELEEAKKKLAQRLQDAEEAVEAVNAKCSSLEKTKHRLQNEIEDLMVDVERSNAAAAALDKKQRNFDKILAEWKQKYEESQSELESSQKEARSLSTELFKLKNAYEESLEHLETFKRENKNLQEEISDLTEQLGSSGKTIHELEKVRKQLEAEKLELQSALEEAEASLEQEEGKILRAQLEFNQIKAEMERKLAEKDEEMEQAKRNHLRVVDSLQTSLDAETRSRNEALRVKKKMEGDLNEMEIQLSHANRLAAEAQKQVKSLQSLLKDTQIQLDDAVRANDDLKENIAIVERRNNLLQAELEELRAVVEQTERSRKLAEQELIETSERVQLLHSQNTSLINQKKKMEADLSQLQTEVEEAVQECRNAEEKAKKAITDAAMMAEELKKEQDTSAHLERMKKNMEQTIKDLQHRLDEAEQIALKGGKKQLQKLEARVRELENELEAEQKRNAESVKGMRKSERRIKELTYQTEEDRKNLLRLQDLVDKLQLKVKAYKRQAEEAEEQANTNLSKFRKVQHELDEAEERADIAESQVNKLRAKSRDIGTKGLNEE
bovine cardiac myosin, sequence (P85100 whole entry partner): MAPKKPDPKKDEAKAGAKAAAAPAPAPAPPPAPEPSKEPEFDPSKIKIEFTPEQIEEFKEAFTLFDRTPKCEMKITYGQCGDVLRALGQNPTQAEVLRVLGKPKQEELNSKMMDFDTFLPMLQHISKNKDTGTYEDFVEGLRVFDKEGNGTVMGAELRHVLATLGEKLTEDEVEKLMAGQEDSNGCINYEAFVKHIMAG
bovine cardiac myosin, sequence (Q3SZE5 whole entry partner): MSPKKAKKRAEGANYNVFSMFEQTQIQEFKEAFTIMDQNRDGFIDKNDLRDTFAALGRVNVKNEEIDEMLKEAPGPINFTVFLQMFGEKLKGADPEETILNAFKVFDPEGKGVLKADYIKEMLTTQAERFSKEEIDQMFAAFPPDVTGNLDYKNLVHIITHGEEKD

| SMILES | Myosin Activation (AC20) (bovine cardiac myosin) | also measured |
| --- | --- | --- |
| Cn1nc(Cl)cc1S(=O)(=O)C(C)(C)C1CCN(C(=O)Nc2ccon2)CC1 [Compound 129, 4-(2-((3-chloro-1-methyl-1H-pyrazol-5-yl)sulfonyl)propan-2-yl)-N-(isoxazol-3-yl)piperidine-1-carboxamide] | +++ (+++ represents myosin activation value AC20 < 2 μM) | Activity at 3.0 uM (fractional shortening activation over basal) [1]: +++ (+++ represents fractional shortening activation values greater than 50% over basal) |
| CC(F)(C1CCN(C(=O)Nc2ccnnc2)CC1)S(=O)(=O)c1cccc(F)c1 (centres unmarked) [Compound 6, 4-(1-Fluoro-1-((3-fluorophenyl)sulfonyl)ethyl)-N-(pyridazin-4-yl)piperidine-1-carboxamide trifluoroacetic acid salt] | ++ (++ represents myosin activation value AC20 from 2 μM-5 μM) | Activity at 10 uM (fractional shortening activation over basal) ([1]; 10 uM compound): ++ (++ represents fractional shorting activation values from 20% to 50% over basal) |
| Cn1cc(S(=O)(=O)[C@@](C)(F)C2CCN(C(=O)Nc3ccon3)CC2)c(C(F)F)n1 [Compound 20, (R)-4-(1-((3-(Difluoromethyl)-1-methyl-1H-pyrazol-4-yl)sulfonyl)-1-fluoroethyl)-N-(isoxazol-3-yl)piperidine-1-carboxamide] | +++ (+++ represents myosin activation value AC20 < 2 μM) | Activity at 1.0 uM (fractional shortening activation over basal) ([1]; 1.0 uM compound): + (+ represents fractional shorting activation <20% over basal); Activity at 3.0 uM (fractional shortening activation over basal) [1]: ++ (++ represents fractional shorting activation values from 20% to 50% over basal) |
| Cn1cc(S(=O)(=O)C2(C3CCN(C(=O)Nc4ccnnc4)CC3)CCC2)c(C(F)F)n1 [Compound 170, 4-(1-((3-(difluoromethyl)-1-methyl-1H-pyrazol-4-yl)sulfonyl)cyclobutyl)-N-(pyridazin-4-yl)piperidine-1-carboxamide] | +++ (+++ represents myosin activation value AC20 < 2 μM) | – |
| Cn1cc(S(=O)(=O)[C@@](C)(F)C2CCN(C(=O)Nc3cccnc3)CC2)c(C(F)F)n1 [Compound 288, (R)-4-(1-((3-(difluoromethyl)-1-methyl-1H-pyrazol-4-yl)sulfonyl)-1-fluoroethyl)-N-(pyridin-3-yl)piperidine-1-carboxamide] | ++ (++ represents myosin activation value AC20 from 2 μM-5 μM) | – |
| CC(C)(C1CCN(C(=O)Nc2ccncc2)CC1)S(=O)(=O)c1ccccc1C#N [Compound 209, 4-(2-((2-cyanophenyl)sulfonyl)propan-2-yl)-N-(pyridin-4-yl)piperidine-1-carboxamide] | ++ (++ represents myosin activation value AC20 from 2 μM-5 μM) | – |
| CCn1nccc1S(=O)(=O)C(C)(C)C1CCN(C(=O)Nc2cnns2)CC1 [Compound 183, 4-(2-((1-ethyl-1H-pyrazol-5-yl)sulfonyl)propan-2-yl)-N-(1,2,3-thiadiazol-5-yl)piperidine-1-carboxamide] | ++ (++ represents myosin activation value AC20 from 2 μM-5 μM) | – |
| CC(C)(C1CCN(C(=O)Nc2ccnnc2)CC1)S(=O)(=O)c1cc(F)cc(F)c1 [Compound 169, 4-(2-((3,5-difluorophenyl)sulfonyl)propan-2-yl)-N-(pyridazin-4-yl)piperidine-1-carboxamide] | +++ (+++ represents myosin activation value AC20 < 2 μM) | – |
| COc1ccccc1S(=O)(=O)C(C)(C)C1CCN(C(=O)Nc2ccns2)CC1 [Compound 215, N-(isothiazol-5-yl)-4-(2-((2-methoxyphenyl)sulfonyl)propan-2-yl)piperidine-1-carboxamide] | ++ (++ represents myosin activation value AC20 from 2 μM-5 μM) | – |
| CC(F)(C1CCN(C(=O)Nc2ccnnc2)CC1)S(=O)(=O)c1ccc(OC(F)F)nc1 (centres unmarked) [Compound 14, 4-(1-((6-(Difluoromethoxy)pyridin-3-yl)sulfonyl)-1-fluoroethyl)-N-(pyridazin-4-yl)piperidine-1-carboxamide] | +++ (+++ represents myosin activation value AC20 < 2 μM) | – |
| Cc1ccc(NC(=O)N2CCC(C(C)(C)S(=O)(=O)c3ccnn3C)CC2)cn1 [Compound 135, 4-(2-((1-methyl-1H-pyrazol-5-yl)sulfonyl)propan-2-yl)-N-(6-methylpyridin-3-yl)piperidine-1-carboxamide] | + (+ represents myosin activation value AC20 > 5 μM) | – |
| CC(C)(C1CCN(C(=O)Nc2cnns2)CC1)S(=O)(=O)c1cccc(F)c1 [Compound 211, 4-(2-((3-fluorophenyl)sulfonyl)propan-2-yl)-N-(1,2,3-thiadiazol-5-yl)piperidine-1-carboxamide] | +++ (+++ represents myosin activation value AC20 < 2 μM) | – |
| Cn1cc(S(=O)(=O)C(C)(F)C2CCN(C(=O)Nc3ccc(F)nc3)CC2)c(C(F)(F)F)n1 (centres unmarked) [Compound 244, 4-(1-fluoro-1-((1-methyl-3-(trifluoromethyl)-1H-pyrazol-4-yl)sulfonyl)ethyl)-N-(6-fluoropyridin-3-yl)piperidine-1-carboxamide] | + (+ represents myosin activation value AC20 > 5 μM) | – |
| CC(F)(C1CCN(C(=O)Nc2ccnnc2)CC1)S(=O)(=O)c1cc(F)cc(F)c1 (centres unmarked) [Compound 275, 4-(1-((3,5-difluorophenyl)sulfonyl)-1-fluoroethyl)-N-(pyridazin-4-yl)piperidine-1-carboxamide] | +++ (+++ represents myosin activation value AC20 < 2 μM) | – |
| O=C(Nc1ccnnc1)N1CCC(C2(S(=O)(=O)c3ccc(C(F)(F)F)cc3)CCC2)CC1 [Compound 165, N-(pyridazin-4-yl)-4-(1-((4-(trifluoromethyl)phenyl)sulfonyl)cyclobutyl)piperidine-1-carboxamide] | +++ (+++ represents myosin activation value AC20 < 2 μM) | – |
| CC(F)(C1CCN(C(=O)Nc2ccc(F)nc2)CC1)S(=O)(=O)c1ccc(C(F)(F)F)cc1 (centres unmarked) [Compound 242, 4-(1-fluoro-1-((4-(trifluoromethyl)phenyl)sulfonyl)ethyl)-N-(6-fluoropyridin-3-yl)piperidine-1-carboxamide] | ++ (++ represents myosin activation value AC20 from 2 μM-5 μM) | – |
| O=C(Nc1ccnnc1)N1CCC(F)(C2(S(=O)(=O)c3cccc(F)c3)CCC2)CC1 [Compound 166, 4-fluoro-4-(1-((3-fluorophenyl)sulfonyl)cyclobutyl)-N-(pyridazin-4-yl)piperidine-1-carboxamide] | ++ (++ represents myosin activation value AC20 from 2 μM-5 μM) | – |
| CC(C)(C1CCN(C(=O)Nc2ccnc(F)c2)CC1)S(=O)(=O)c1cccc(F)c1 [Compound 151, 4-(2-((3-fluorophenyl)sulfonyl)propan-2-yl)-N-(2-fluoropyridin-4-yl)piperidine-1-carboxamide] | ++ (++ represents myosin activation value AC20 from 2 μM-5 μM) | – |
| CC(C)(C1CCN(C(=O)Nc2cncnc2)CC1)S(=O)(=O)c1cccc(F)c1 [Compound 132, 4-(2-((3-fluorophenyl)sulfonyl)propan-2-yl)-N-(pyrimidin-5-yl)piperidine-1-carboxamide] | + (+ represents myosin activation value AC20 > 5 μM) | – |
